Results on two molecules are retold here after patent US6323219A, “Methods for treating immunomediated inflammatory disorders” (Ortho-McNeil Pharmaceutical, Inc., priority 1999, dated 2001).

A short description of series [1]: Bioavailability, ex vivo thrombin inhibition assay after i.v. and p.o. dosing. The series is classed as in vivo. Conditions: rat, plasma, po, male rats. As to the method:
Bioavailability was determined by an ex vivo thrombin inhibition assay which incorporated hydrolysis rates from drug administered both i.v. and p.o. In this assay male rats were prepared as described above with a Teflon tube implanted in their femoral artery. Blood was drawn from the animals 15 min before dosing with the inhibitor (0.25 mL blood was drawn into a syringe containing 0.025 mL of Sigma sodium citrate) and set aside for analysis. The test compound was dispersed in water (0.3-3.0 mg/mL final conc.) and delivered to the animals (0.25 mL) either i.v. or p.o.. […] This sample was analyzed for thrombin inhibition using the chromogenic assay, described below.
The rate of increase in absorbance at 405 nm of synthetic peptides (50 μM Spectozyme® TH (H-D-HHT-Ala-Arg-pNA-2AcOH), American Diagnostica) was measured in the presence of plasma with a microplate reader (Molecular Devices) at 37° C. using an aqueous buffer (10 mM Tris, 10 mM Hepes, 150 mM NaCI, 0.1% PEG; pH 7.4). […] Datum were collected over a 30 min period and the initial rate of substrate hydrolysis (VO (mOD/min)) was calculated with an analysis program (Softmax, Molecular Devices). […]
The percentage of thrombin inhibition in the treated animals was calculated by comparing the V0 prior to treatment with the V0 obtained from samples collected after treatment. […]

For another series, the target named is human Lung Tryptase. The series can be described thus: Tryptase IC50 Method. The series is classed as biochemical. Conditions: 37° C., 1.0 nM enzyme, 500 μM substrate. The protocol:
(§1) The enzyme reaction is started by the addition of enzyme ([E]: 1.0 nM human Lung Tryptase; Cortex Biochem CP3033). Data is collected over a period of 30 min. and the initial rate of substrate hydrolysis (Vo (mOD/min)) is calculated. Inhibition is calculated by comparing to wells containing no inhibitor (vehicle) and IC50 s are determined using a four parameter fit logistics model. […] The enzyme reaction is started by the addition of enzyme ([E]: 10.0 nM Human Skin Chymase; Cortex Biochem CPl 129). Data is collected over a period of 30 min. and the initial rate of substrate hydrolysis (Vo (mOD/min)) is calculated. Inhibition is calculated by comparing to wells containing no inhibitor (vehicle) and IC50 s are determined using a four parameter fit logistics model. Chymase 10 μM Screen Method: The optical density at 405 nm due to hydrolysis of synthetic chromogenic peptide substrates ([S]: 500 μM Suc-Ala-Ala-Pro-Phe-pNA; Bachem L-1400) is measured in the presence and absence of inhibitor compounds of formula (I) with a microplate reader at room temperature. The enzyme reaction is started by the addition of enzyme ([E]: 5.0 nM Human Skin Chymase; Cortex Biochem CP1129), and 3 hours following that addition data is collected. After subtracting background (no enzyme addition), inhibition is calculated by comparing to wells containing no inhibitor (vehicle).

Series [2] deals with T1, Human Skin Chymase (Homo sapiens, UniProt P23946).
T1 construct: purchased Cortex Biochem CP1129; host or cells: human skin
T1 sequence (P23946 22-247): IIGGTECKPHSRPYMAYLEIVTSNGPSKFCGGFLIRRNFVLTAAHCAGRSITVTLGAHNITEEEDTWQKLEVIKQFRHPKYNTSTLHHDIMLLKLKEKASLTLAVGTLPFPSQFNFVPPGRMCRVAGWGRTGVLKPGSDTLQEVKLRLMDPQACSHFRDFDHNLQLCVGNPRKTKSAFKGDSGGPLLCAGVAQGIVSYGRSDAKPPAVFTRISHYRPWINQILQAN
The series can be described thus: Chymase 10 μM Screen Method. Type of series: biochemical. Conditions: read-out: Chymase % Inhibition (10 μM). As to the method: The enzyme reaction is started by the addition of enzyme ([E]: 1.0 nM human Lung Tryptase; Cortex Biochem CP3033). Data is collected over a period of 30 min. and the initial rate of substrate hydrolysis (Vo (mOD/min)) is calculated. Inhibition is calculated by comparing to wells containing no inhibitor (vehicle) and IC50 s are determined using a four parameter fit logistics model. […] Data is collected over a period of 30 min. and the initial rate of substrate hydrolysis (Vo (mOD/min)) is calculated. Inhibition is calculated by comparing to wells containing no inhibitor (vehicle) and IC50 s are determined using a four parameter fit logistics model. […] The enzyme reaction is started by the addition of enzyme ([E]: 5.0 nM Human Skin Chymase; Cortex Biochem CP1129), and 3 hours following that addition data is collected. After subtracting background (no enzyme addition), inhibition is calculated by comparing to wells containing no inhibitor (vehicle).

Another series can be described thus: in vivo. The arrangement: species or system male rats (Long Evans). Particulars: rat, iv. The protocol:
Since the compounds of the formula (l) are also potent thrombin inhibitors (see U.S. Pat. No. 5,523,308), an ex vivo thrombin assay was conducted to determine the duration of action of the compounds of Formula I. For this i.v. assay male rats (Long Evans, 350-500 g) were implanted with a teflon cannulae via the femoral artery while under anesthesia (pentobarbital i.p., 35 mg/kg). After surgery, the animals were individually housed in standard cages, fed with rat chow (Hanlan, #8604) and continuously infused with physiological saline to maintain arterial patency, (0.5 mL/h, intra arterial) using a spring-shielded swiveling tether connected to an infusion system. The animals were allowed to recover for at least 24 h after the surgical procedure.
A sample of blood was drawn from the animals 15 min before dosing with the inhibitor (0.25 mL blood is drawn into a syringe containing 0.025 mL of Sigma sodium citrate). The test compound was dispersed in water and delivered to the animal (0.25 mL) via the femoral vein. The inhibitor was given at a concentration (mg/mL) which produced 80% inhibition of VO in a plasma sample at 5 min after infusion. Blood was drawn from the arterial line (blood:sodium citrate, 0.25/0.025 mL ) at regular intervals after dosing (5, 10, 15, 30, 60 and 120 min) and placed in a centrifuge tube. A plasma sample was obtained by centrifuging the blood at 10,000 rpm for 5 min. This sample is analyzed for thrombin inhibition using the chromogenic assay, described below.
The rate of increase in absorbance at 405 nm of synthetic peptides (50 μM Spectozyme® TH (H-D-HHT-Ala-Arg-pNA-2AcOH), American Diagnostica) is measured in the presence of plasma with a microplate reader (Molecular Devices) at 37° C. using an aqueous buffer (10 mM Tris, 10 mM Hepes, 150 mM NaCl, 0.1% PEG; pH 7.4). The buffer was added to the plasma samples (1:1) dilution prior to delivery to the microplate (1:5 and 1:50 for final plasma dilutions of 1:10 and 1:100 respectively) followed by the enzyme (1 nM human α thrombin). Datum was collected over a 30 min period and the initial rate of substrate hydrolysis (V0 (mOD/min)) was calculated with an analysis program (Softmax, Molecular Devices).
The time to half plasma elimination (t 1/2) was calculated from the slope of VO vs. time, using the following equation: […]. These datum are presented in Table L. In Table L, the compound # corresponds to the compound number described in U.S. Pat. No. 5,523,308.

Series [3] has as its target T1, Human Skin Chymase. The series can be described thus: Chymase IC50 Method. Conditions: 37° C., 10.0 nM enzyme, 500 μM substrate. The series is classed as biochemical. The protocol:
as §1

Structures are written as SMILES. Read-outs that look alike come from different tables or passages of the source.

Turning to `CN[C@H](Cc1ccccc1)C(=O)N1CCC[C@H]1C(=O)N[C@@H](CCCNC(=N)N)C(=O)c1nc2ccccc2s1` [Compound 1], the bioavailability in series [1] is 1.2%. The molecule further returned an IC50 against human Lung Tryptase of 7.5 nM. For the same molecule, on Human Skin Chymase [2] (10 μM, room temperature, 5.0 nM enzyme, 3 hours), the inhibition at 10 µM was 2%. The molecule further registered a half-life in the series “in vivo” of 19 min.
In turn, `CN[C@H](Cc1ccccc1)C(=O)N1CCC[C@H]1C(=O)N[C@@H](Cc1ccccc1)C(=O)c1nc2ccccc2s1` [Compound 38] yielded an IC50 on Human Skin Chymase [3] of 2700 nM. Moreover, at Human Skin Chymase [2], the inhibition at 10 µM stood at 94%.
